Strand notation (5' to 3'): a small letter for the sugar, then the base; units joined by * are phosphorothioate-linked, units joined directly phosphodiester-linked; [ ] holds rarer units or linkages, { } end groups; capitals alone tell only the bases. e = 2'-O-(2-methoxyethyl) (MOE); [5mC] = 5-methylcytosine; d = 2'-deoxy (DNA)
Experiments:
human SMAD7 mRNA [1] = assay: Dose-dependent inhibition of human SMAD7 mRNA expression in A431 cells, oligonucleotide added without transfection (Example 5, Study 1); format: cell-based; settings: approximately 48 hours
Protocol: The newly designed compounds disclosed herein are cEt-modified antisense oligonucleotides. […] The studies described below show a comparison of select cEt-modified gapmers and ION0736697/Mongersen.
A431 cells were plated in collagen I-coated 96-well plates in DMEM with […]. Immediately after plating, 0.08 μM, 0.25 μM, 0.74 μM, 2.22 μM, 6.67 μM, or 20.00 μM concentrations of antisense oligonucleotide were added. The plates were shaken briefly before incubating at 37° C. and 10% CO2. After a treatment period of approximately 48 hours, the cells were washed and lyzed and RNA on 384-well Pall plates with DNase I treatment. SMAD7 mRNA levels were measured by quantitative real-time PCR. Primer probe set RTS5062 was used to measure human SMAD7 mRNA levels. SMAD7 mRNA levels were adjusted according to total RNA content, as measured by RIBOGREEN®. Results are presented as percent inhibition of SMAD7 mRNA expression, relative to untreated control cells.
All Ionis oligonucleotides had greater potency than ION 736697/Mongersen.

[2] = system: human peripheral blood mononuclear cells (PBMCs); assay: Human PBMC activation assay, cytokine levels (IL-10, IL-6, MCP-1, TNF-α) in supernatant after 24 hours (Example 9); settings: human PBMC supernatant after 24 hours
Protocol: Ionis SMAD7 oligonucleotides were tested in an in vitro assay for potential immunostimulatory properties in an in vitro human peripheral blood mononuclear cell (PBMC) activation assay.
Blood samples were collected from healthy human volunteers in heparinized vials and mixed well. Human PBMCs were isolated by gradient centrifugation using Ficoll-Histopaque. The cells were washed, counted and resuspended in medium. The PBMCs were plated in a 24-well culture plate and various concentrations of oligonucleotides were added to the media. An oligonucleotide historically known to promote an inflammatory response was used as a positive control, whereas an oligonucleotide known not to be pro-inflammatory was used as a negative control. […] The supernatants were collected after 24 hours and analyzed for cytokine levels using MSD platform.

murine Smad7 mRNA = assay: Dose-dependent inhibition of murine Smad7 mRNA in bEND cells, electroporation (Example 5, Study 2); format: cell-based, mouse; settings: electroporation; for % inhibition of SMAD7 mRNA expression: approximately 16 hours
Protocol: Many of the Ionis designed oligonucleotides as well as ION 736697/Mongersen are complementary to mouse Smad7 mRNA. […] After a treatment period of approximately 16 hours, the cells were washed and lyzed and RNA on 384-well Pall plates with DNase I treatment. Smad7 mRNA levels were measured by quantitative real-time PCR. Primer probe set RTS1114 (forward sequence […], designated herein as SEQ ID NO: 8; reverse sequence […], designated herein as SEQ ID NO: 9; probe sequence […], designated herein as SEQ ID NO: 10) was used to measure murine Smad7 mRNA levels. Smad7 mRNA levels were adjusted according to total RNA content, as measured by RIBOGREEN®. Results are presented as percent inhibition of Smad7 mRNA expression, relative to untreated control cells.
Many of the Ionis oligonucleotides had greater potency than ION 736697/Mongersen.

human SMAD7 mRNA [3] = assay: Antisense inhibition of human SMAD7 mRNA expression in Hep3B cells by 3-10-3 cEt gapmers, 10,000 nM, electroporation (Example 2); format: cell-based; settings: Hep3B cells, electroporation with 10,000 nM antisense oligonucleotide, approximately 24 hours, primer probe set RTS5062, relative to untreated control cells
Method in brief: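 Hep3B cells (20,000 per well) were electroporated with 10,000 nM 16-mer 3-10-3 cEt gapmer (phosphorothioate, 5-methylcytosine). After about 24 h, SMAD7 mRNA was quantified by qRT-PCR with primer probe set RTS5062, normalised to RIBOGREEN total RNA, and expressed as percent inhibition versus untreated cells.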

human SMAD7 mRNA [4] = assay: Antisense inhibition of human SMAD7 mRNA expression in Hep3B cells by 5-10-5 MOE gapmers, single concentration, electroporation, RT-PCR (Example 1, Study 1 and 2); format: cell-based; settings: 5-10-5 MOE gapmers targeting SEQ ID NO: 1 and 2
Method in brief: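 Hep3B cells (20,000/well) electroporated with 5-10-5 MOE gapmer at 5,000 nM or 15,000 nM for approximately 24 h. SMAD7 mRNA quantified by real-time PCR with primer probe set RTS5062 and normalized to RIBOGREEN total RNA. Values are percent inhibition relative to untreated controls.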

human SMAD7 mRNA [5] = assay: Dose-dependent inhibition of human SMAD7 mRNA expression in Hep3B cells (Example 3, Study 1 and 2); format: cell-based; settings: electroporation; for % inhibition of SMAD7 mRNA expression: approximately 16 hours
Method in brief: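 Hep3B cells, 20,000 per well, electroporated with antisense oligonucleotide at 0.31, 1.25, 5.00 or 20.00 μM (first series) or 0.74, 2.22, 6.67 or 20.00 μM (second series). After ~16 h, SMAD7 mRNA measured by RT-qPCR (RTS5062), normalised to RIBOGREEN total RNA. Percent inhibition vs untreated cells; IC50 derived.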

[6] = electroporation, 15,000 nM antisense oligonucleotide (Study 2)
[7] = 312.5 nM, Study 1, relative to untreated control cells

## 736697 (antisense GTCGCCCCTTCTCCCCGCAGC; chemistry not fully specified) [compound 736697]
Human SMAD7 mRNA [1]; 0.08 μM
  % inhibition of SMAD7 mRNA expression: 14%
Human SMAD7 mRNA [1]; 0.25 μM
  % inhibition of SMAD7 mRNA expression: 20%
Human SMAD7 mRNA [1]; 0.74 μM
  % inhibition of SMAD7 mRNA expression: 24%
Human SMAD7 mRNA [1]; 2.22 μM
  % inhibition of SMAD7 mRNA expression: 13%
Human SMAD7 mRNA [1]; 6.67 μM
  % inhibition of SMAD7 mRNA expression: 34%
Human SMAD7 mRNA [1]; 20.00 μM
  % inhibition of SMAD7 mRNA expression: 37%
Human SMAD7 mRNA [1]; SMAD7 mRNA
  IC50: > 20 µM
[2]; 0.0128 μM oligonucleotide
  Levels of IL-6: 3.6 pg/mL
  Levels of IL-10: 2.1 pg/mL
  Levels of MCP-1: 297.6 pg/mL
  Levels of TNF-α: 2.8 pg/mL
[2]; 0.064 μM oligonucleotide
  Levels of IL-6: 5.3 pg/mL
  Levels of IL-10: 3.1 pg/mL
  Levels of MCP-1: 385.9 pg/mL
  Levels of TNF-α: 3.5 pg/mL
[2]; 0.32 μM oligonucleotide
  Levels of IL-6: 12.3 pg/mL
  Levels of IL-10: 3.5 pg/mL
  Levels of MCP-1: 681.3 pg/mL
  Levels of TNF-α: 5.5 pg/mL
[2]; 1.6 μM oligonucleotide
  Levels of IL-6: 15.5 pg/mL
  Levels of IL-10: 2.2 pg/mL
  Levels of MCP-1: 693.9 pg/mL
  Levels of TNF-α: 6.8 pg/mL
[2]; 8 μM oligonucleotide
  Levels of IL-6: 57.4 pg/mL
  Levels of IL-10: 4.2 pg/mL
  Levels of MCP-1: 2306.8 pg/mL
  Levels of TNF-α: 13.6 pg/mL
[2]; 40 μM oligonucleotide
  Levels of IL-6: 63.3 pg/mL
  Levels of IL-10: 4.7 pg/mL
  Levels of MCP-1: 2974.9 pg/mL
  Levels of TNF-α: 28.1 pg/mL
[2]; 200 μM oligonucleotide
  Levels of IL-6: 64.8 pg/mL
  Levels of IL-10: 4.0 pg/mL
  Levels of MCP-1: 622.8 pg/mL
  Levels of TNF-α: 43.7 pg/mL
Murine Smad7 mRNA; 0.25 μM
  % inhibition of SMAD7 mRNA expression: 1%
Murine Smad7 mRNA; 0.74 μM
  % inhibition of SMAD7 mRNA expression: 1%
Murine Smad7 mRNA; 2.22 μM
  % inhibition of SMAD7 mRNA expression: 0%
Murine Smad7 mRNA; 6.67 μM
  % inhibition of SMAD7 mRNA expression: 0%
Murine Smad7 mRNA; 20.00 μM
  % inhibition of SMAD7 mRNA expression: 0%
Murine Smad7 mRNA
  IC50: > 20 µM

## 771576 (antisense eG*eG*eG*e[5mC]*eA*dG*dG*dA*dG*dA*dG*dA*d[5mC]*dA*d[5mC]*e[5mC]*eG*e[5mC]*eT*eT) [compound 771576]
Human SMAD7 mRNA [3]
  % Inhibition: 49%
  % inhibition of SMAD7 mRNA expression: 50%
Human SMAD7 mRNA [4]; electroporation with 15,000 nM antisense oligonucleotide (Study 2)
  % Inhibition of SMAD7 mRNA: 64%
Human SMAD7 mRNA [4]; [6]
  % inhibition of SMAD7 mRNA expression: 28%
Human SMAD7 mRNA [5]; [7]
  % inhibition of SMAD7 mRNA expression: 9%
Human SMAD7 mRNA [5]; 740 nM, Study 2, relative to untreated control cells
  % inhibition of SMAD7 mRNA expression: 0%
Human SMAD7 mRNA [5]; 1250.0 nM, Study 1
  % inhibition of SMAD7 mRNA expression: 24%
Human SMAD7 mRNA [5]; 2220 nM, Study 2
  % inhibition of SMAD7 mRNA expression: 23%
Human SMAD7 mRNA [5]; 5000.0 nM, Study 1
  % inhibition of SMAD7 mRNA expression: 55%
Human SMAD7 mRNA [5]; 6670.0 nM, Study 2
  % inhibition of SMAD7 mRNA expression: 23%
Human SMAD7 mRNA [5]; 20000.0 nM, Study 1
  % inhibition of SMAD7 mRNA expression: 75%
Human SMAD7 mRNA [5]; 20000.0 nM, Study 2
  % inhibition of SMAD7 mRNA expression: 22%
Human SMAD7 mRNA [5]; Study 1 (312.5-20000 nM)
  IC50: 4 µM
Human SMAD7 mRNA [5]; Study 2 (740-20000 nM)
  IC50: > 20 µM

## 771487 (antisense e[5mC]*eT*eG*e[5mC]*eA*d[5mC]*dG*dG*dT*dA*dA*dA*dG*d[5mC]*d[5mC]*e[5mC]*eG*eT*e[5mC]*e[5mC]) [compound 771487]
Human SMAD7 mRNA [4]; Study 2, electroporation with 15,000 nM antisense oligonucleotide
  % inhibition of SMAD7 mRNA expression: 45%
Human SMAD7 mRNA [5]; [7]
  % inhibition of SMAD7 mRNA expression: 4%
Human SMAD7 mRNA [5]; 1250.0 nM, Study 1
  % inhibition of SMAD7 mRNA expression: 0%
Human SMAD7 mRNA [5]; 5000.0 nM, Study 1
  % inhibition of SMAD7 mRNA expression: 7%
Human SMAD7 mRNA [5]; 20000.0 nM, Study 1
  % inhibition of SMAD7 mRNA expression: 26%
Human SMAD7 mRNA [5]; Study 1 (312.5-20000 nM)
  IC50: > 20 µM

## 771506 (antisense eG*e[5mC]*eT*e[5mC]*eA*dG*d[5mC]*dT*d[5mC]*dA*d[5mC]*dG*d[5mC]*dT*d[5mC]*eT*eG*eT*e[5mC]*e[5mC]) [compound 771506]
Human SMAD7 mRNA [4]; [6]
  % inhibition of SMAD7 mRNA expression: 53%
Human SMAD7 mRNA [5]; [7]
  % inhibition of SMAD7 mRNA expression: 54%
Human SMAD7 mRNA [5]; 1250.0 nM, Study 1
  % inhibition of SMAD7 mRNA expression: 1%
Human SMAD7 mRNA [5]; 5000.0 nM, Study 1
  % inhibition of SMAD7 mRNA expression: 5%
Human SMAD7 mRNA [5]; 20000.0 nM, Study 1
  % inhibition of SMAD7 mRNA expression: 44%
Human SMAD7 mRNA [5]; Study 1 (312.5-20000 nM)
  IC50: > 20 µM

From patent US10517889B2, “Modulators of SMAD7 expression” (Ionis Pharmaceuticals, Inc., priority 2017, dated 2019)
